Measured values as given in publication PMC8779255, “Determining the Anticancer Activity of Sphingosine Kinase Inhibitors Containing Heteroatoms in Their Tail Structure” (Pharmaceutics, 2022).
Entries after “also recorded” stand apart in the source; their conditions may differ. Each block holds one compound with its values, some of them ahead of it.

Tests used:
[1] = system: SK1; details: known compounds, Figure 1; cited from earlier work
[2] = system: SK2; details: Figure 1, cited from earlier work; for IC50: known compounds
[3] = system: HCT116 cells; assay: MTT cell viability assay; format: cell-based, human; details: for cytotoxic effect (cell viability): HCT116, 20 and 40 µM, 24 h, Figure 2B
Experimental: (§1) The HT29 and HCT116 cells (human colon cancer), AGS (human gastric cancer), and MIA PaCa-2 cells (human pancreatic cancer) were purchased from Korean Cell Line Bank (Seoul, Korea). Cancer cells were maintained in RPMI (HT29 and AGS) and DMEM (HCT116 and MIA PaCa-2) culture media supplemented with 10% fetal bovine serum (FBS) and 100 U/mL penicillin and streptomycin at 37 °C in a 95% humidified incubator containing 5% CO2. The cytotoxic effect of the compounds was assessed using the MTT cell viability assay. Briefly, 3 × 10^3 cells/well were grown in 96-well plates for 24 h. After treatment with desired concentration of respective compounds for 24 h or 48 h, the EZ-CYTOTOX (10 µM) reagent was added in each well and incubated for 90 min. The absorbance was measured at 450 nm wavelength using Skanlt software 5.0 (Thermo Scientific, Waltham, MA, USA) installed on a Multiskan GO (Thermo Scientific, Waltham, MA, USA) spectrophotometer. Each experiment was independently repeated three times (n = 12).

[4] = system: HT29 cells; assay: MTT cell viability assay; format: cell-based, human; details: HT29, 20 and 40 µM, 24 h, Figure 2A
Experimental: as §1

[5] = target: T1, SK1 enzyme (Homo sapiens, UniProt Q9NYA1); assay: SK activity assay (Adapta screening system); format: biochemical; details: 20 μM, Figure 5
T1 construct: purchased Thermo Fisher Scientific
T1 sequence (Q9NYA1 whole entry): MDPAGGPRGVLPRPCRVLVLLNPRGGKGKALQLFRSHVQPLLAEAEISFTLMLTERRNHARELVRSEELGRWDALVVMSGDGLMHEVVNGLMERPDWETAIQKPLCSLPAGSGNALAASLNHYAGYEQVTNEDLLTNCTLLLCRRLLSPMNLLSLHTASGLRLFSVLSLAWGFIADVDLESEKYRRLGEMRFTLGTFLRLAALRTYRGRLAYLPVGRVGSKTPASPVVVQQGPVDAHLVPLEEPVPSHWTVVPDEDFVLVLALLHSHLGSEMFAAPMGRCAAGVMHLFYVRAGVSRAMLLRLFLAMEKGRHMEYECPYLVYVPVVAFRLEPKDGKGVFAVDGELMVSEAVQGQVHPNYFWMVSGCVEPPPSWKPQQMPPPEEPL
Experimental: The effect of compounds in sphingosine kinase activity was examined using the […] screening system (Thermo Fisher Scientific System, Waltham, MA, USA). The kinase inhibition ability of compounds 1-11 along with RB005 was measured with final concentration of 20 μM. […] The data were presented as percentage inhibition of SK enzyme by individual compounds.

[6] = system: HT29 cells; assay: Annexin V-FITC/PI staining, flow cytometry; format: cell-based, human; details: HT29, 10 and/or 20 µM, 24 h
Experimental: After treating HT29 and HCT116 cells with compounds 10, 11, 13 and FTY720 according to the manufacturer’s instruction, the annexin V and PI staining technique was employed to determine apoptosis in the cells. Briefly, cells (2.5 × 10^5 cells/well) were seeded in 12-well plates and treated with 10 and/or 20 µM of compounds for 24 h. Cells were collected using trypsin-EDTA and stained with annexin V-FITC dye for 15 min at room temperature, followed by PI staining for 20 min and analyzed by flow cytometer (MACSQuant Analyzer 10; Miltenyi Biotec, Bergisch Gladbach, Germany). The data was analyzed using MACSQuantify^TM version 2.8 software (Miltenyi Biotec, Bergisch Gladbach, Germany) and presented as early apoptosis, late apoptosis, or combined apoptosis percentage. Each experiment was repeated three times independently (n = 6).

[7] = target: T2, PP2A in HCT116 cells (Homo sapiens, UniProt P67775); assay: PP2A activity assay (immunoprecipitation kit); format: cell-based; details: for PP2A activity (activation): HCT116, 20 µM, 24 h
T2 construct: endogenous in cells; host or cells: HCT116
T2 sequence (P67775 whole entry): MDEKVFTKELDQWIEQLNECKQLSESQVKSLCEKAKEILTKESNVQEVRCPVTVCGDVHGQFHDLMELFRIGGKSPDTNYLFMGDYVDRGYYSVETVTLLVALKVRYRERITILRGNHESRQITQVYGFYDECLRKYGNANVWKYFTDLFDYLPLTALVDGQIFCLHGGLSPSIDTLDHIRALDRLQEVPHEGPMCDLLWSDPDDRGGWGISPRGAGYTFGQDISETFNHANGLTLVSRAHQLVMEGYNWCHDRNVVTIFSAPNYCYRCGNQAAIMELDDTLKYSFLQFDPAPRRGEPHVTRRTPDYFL
Experimental: The activity of PP2A was measured by using the PP2A kit according to the manufacturer’s instruction. The cell lysate was incubated with anti PP2A, C subunit antibody, and protein A agarose slurry for 2 h at 4 °C. The phosphopeptide solution (60 µL) was mixed and incubated at 30 °C for 10 min in a shaker. After a brief centrifuge, a 25 µL sample was liquated in ½ volume microplate and 100 µL malachite green phosphate detection working solution was added. After color development, absorbance was taken at 650 nm in a Multiskan GO microplate reader. A phosphate standard curve was constructed using phosphate standard, and results were calculated using this standard curve. This experiment was repeated three times (n = 6).

[8] = system: AKT and ERK phosphorylation in HCT116 cells; assay: Western blotting of pAKT and pERK; format: cell-based, human; details: HCT116, 20 µM
Experimental: The cell lysate was prepared after successive treatment using mammalian protein extraction buffer (Organic buffer + 10 mM NaCl + detergent pH 7.5) mixed with 1% protease/phosphatase inhibitor cocktail; protein was quantified with BCA assay, boiled at 95 °C for 10 min by adding sample loading buffer, separated using SDS-PAGE, and transferred into methanol-activated PVDF membrane. Primary antibodies were probed overnight in PVDF membrane at 4 °C and […] with subsequent HRP anti-mouse and anti-rabbit secondary antibodies at room temperature. Then, membranes were washed with TBST buffer, and images were detected by Amersham Imager 680 (GE Healthcare; Leiden, WZ, The Netherlands) using ECL solution. Band intensities were analyzed and quantified using Image J software (version 1.53i).

[9] = target: T3, CYP1A2 (Homo sapiens, UniProt P05177); assay: Inhibition of CYP enzymes activity, human liver microsomes; details: human liver microsomes 0.25 mg/mL, 10 μM, phenacetin substrate
T3 sequence (P05177 1-516): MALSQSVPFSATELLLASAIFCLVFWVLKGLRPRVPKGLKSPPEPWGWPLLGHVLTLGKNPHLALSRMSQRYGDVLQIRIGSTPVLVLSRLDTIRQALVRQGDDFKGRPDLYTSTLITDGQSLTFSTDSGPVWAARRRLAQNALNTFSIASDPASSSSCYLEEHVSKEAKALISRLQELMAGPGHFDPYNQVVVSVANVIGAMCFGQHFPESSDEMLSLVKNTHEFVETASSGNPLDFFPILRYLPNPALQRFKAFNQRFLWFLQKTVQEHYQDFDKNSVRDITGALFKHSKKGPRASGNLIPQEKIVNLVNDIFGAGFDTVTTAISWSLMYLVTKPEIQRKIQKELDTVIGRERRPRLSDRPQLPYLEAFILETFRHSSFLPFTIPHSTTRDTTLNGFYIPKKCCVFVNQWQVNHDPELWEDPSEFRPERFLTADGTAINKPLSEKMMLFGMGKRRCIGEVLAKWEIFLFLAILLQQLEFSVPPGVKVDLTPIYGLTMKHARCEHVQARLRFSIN

[10] = target: CYP2C9 (Homo sapiens, UniProt P11712); assay: as above; details: human liver microsomes 0.25 mg/mL, 10 μM, diclofenac substrate
CYP2C9, sequence (P11712 whole entry): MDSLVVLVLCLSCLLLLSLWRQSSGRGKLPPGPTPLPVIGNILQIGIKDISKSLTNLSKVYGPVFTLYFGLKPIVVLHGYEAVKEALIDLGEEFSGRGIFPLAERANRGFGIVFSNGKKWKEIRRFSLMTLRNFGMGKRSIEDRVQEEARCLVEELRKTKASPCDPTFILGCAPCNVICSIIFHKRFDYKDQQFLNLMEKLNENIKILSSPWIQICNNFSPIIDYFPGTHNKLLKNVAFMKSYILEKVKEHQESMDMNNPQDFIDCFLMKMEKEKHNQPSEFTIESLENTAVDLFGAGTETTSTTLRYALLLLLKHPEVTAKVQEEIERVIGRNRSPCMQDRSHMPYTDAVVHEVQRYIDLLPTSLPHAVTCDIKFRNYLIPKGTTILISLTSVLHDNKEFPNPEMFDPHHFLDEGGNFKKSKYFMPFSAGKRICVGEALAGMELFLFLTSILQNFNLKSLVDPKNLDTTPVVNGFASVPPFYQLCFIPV

[11] = target: CYP2C19 (Homo sapiens, UniProt P33261); assay: as above; details: human liver microsomes 0.25 mg/mL, 10 μM, S-mephenytoin substrate
CYP2C19, sequence (P33261 whole entry): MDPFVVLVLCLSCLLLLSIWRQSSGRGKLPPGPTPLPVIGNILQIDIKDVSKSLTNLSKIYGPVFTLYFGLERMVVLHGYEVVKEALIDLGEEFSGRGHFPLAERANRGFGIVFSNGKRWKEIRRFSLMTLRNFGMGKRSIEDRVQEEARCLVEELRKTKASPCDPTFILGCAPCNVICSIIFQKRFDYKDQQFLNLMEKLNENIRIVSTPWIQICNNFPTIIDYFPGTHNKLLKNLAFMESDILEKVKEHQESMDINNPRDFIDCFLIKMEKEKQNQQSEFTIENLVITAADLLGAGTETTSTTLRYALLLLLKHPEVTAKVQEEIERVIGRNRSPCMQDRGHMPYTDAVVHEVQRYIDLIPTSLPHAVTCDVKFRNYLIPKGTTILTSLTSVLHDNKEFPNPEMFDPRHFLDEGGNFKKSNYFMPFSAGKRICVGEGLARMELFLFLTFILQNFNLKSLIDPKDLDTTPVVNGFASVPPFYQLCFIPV

[12] = In vitro metabolic stability in liver microsomes; format: in vitro ADME, rat
[13] = In vitro metabolic stability in liver microsomes; format: in vitro ADME, mouse
[14] = In vitro metabolic stability in liver microsomes
[15] = target: CYP2D6 (Homo sapiens, UniProt P10635); assay: Inhibition of CYP enzymes activity, human liver microsomes; details: human liver microsomes 0.25 mg/mL, 10 μM, dextromethorphan substrate
CYP2D6, sequence (P10635 whole entry): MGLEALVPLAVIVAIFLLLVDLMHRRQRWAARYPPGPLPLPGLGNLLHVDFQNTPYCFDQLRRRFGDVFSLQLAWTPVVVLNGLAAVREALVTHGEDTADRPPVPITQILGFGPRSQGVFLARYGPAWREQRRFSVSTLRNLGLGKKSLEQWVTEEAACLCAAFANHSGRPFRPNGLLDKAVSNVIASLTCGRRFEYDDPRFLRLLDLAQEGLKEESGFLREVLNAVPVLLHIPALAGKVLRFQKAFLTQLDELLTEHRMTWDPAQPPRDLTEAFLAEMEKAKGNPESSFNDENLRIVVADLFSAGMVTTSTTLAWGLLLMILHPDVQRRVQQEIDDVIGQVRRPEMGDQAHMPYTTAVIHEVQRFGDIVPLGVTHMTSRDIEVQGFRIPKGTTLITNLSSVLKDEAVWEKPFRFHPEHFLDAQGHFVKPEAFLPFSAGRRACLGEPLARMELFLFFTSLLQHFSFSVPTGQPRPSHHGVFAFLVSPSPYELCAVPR

[16] = % remaining after 30 min, NADPH

SMILES: O=C(NCc1ccncc1)C12CC3CC(C1)CC(c1ccc(Cl)cc1)(C3)C2 [ABC294640]
IC50 [1]: > 100 µM
IC50 [2]: ~60 µM

SK1 inhibitory effect [5]: highest SK1 inhibitory effect
SMILES: CCCCCCCOc1ccc(CCN2CCC[C@@H]2CO)cc1 [Compound 1, (R)-(1-(4-(Heptyloxy)phenethyl)pyrrolidin-2-yl)methanol]
cytotoxic effect (cell viability) [3]: significant cytotoxic effects in both 20 and 40 µM concentrations
cytotoxic effect (cell viability) [4]: more cytotoxic than RB005 and 5-FU

SMILES: CCCCCCCOc1ccc(CCN2CCCCC2)cc1 [Compound 2, 1-(4-(Heptyloxy)phenethyl)piperidine]
cytotoxic effect (cell viability) [3]: significant cytotoxic effects in both 20 and 40 µM concentrations
cytotoxic effect (cell viability) [4]: more cytotoxic than RB005 and 5-FU

SMILES: CCCCCCCOc1ccc(CCN2CCC[C@H]2CO)cc1 [Compound 5, (S)-(1-(4-(Heptyloxy)phenethyl)pyrrolidin-2-yl)methanol]
cytotoxic effect (cell viability) [3]: only 40 µM concentration of compounds 3, 5 and 9 shows significant cytotoxic effect

SMILES: CCCCCCCOc1ccc(CCN2CCC(CO)CC2)cc1 [Compound 6, (1-(4-(Heptyloxy)phenethyl)piperidin-4-yl)methanol]
cytotoxic effect (cell viability) [3]: significant cytotoxic effects in both 20 and 40 µM concentrations
cytotoxic effect (cell viability) [4]: more cytotoxic than RB005 and 5-FU

SMILES: CCCCCCCOc1ccc(CCN2CCC(C)CC2)cc1 [Compound 7, 1-(4-(Heptyloxy)phenethyl)-4-methylpiperidine]
cytotoxic effect (cell viability) [3]: significant cytotoxic effects in both 20 and 40 µM concentrations

SMILES: CCCCCCCOc1ccc(CCN2CCCC(CO)C2)cc1 (stereo not shown) [Compound 8, (1-(4-(Heptyloxy)phenethyl)piperidin-3-yl)methanol]
cytotoxic effect (cell viability) [3]: significant cytotoxic effects in both 20 and 40 µM concentrations
cytotoxic effect (cell viability) [4]: more cytotoxic than RB005 and 5-FU

SMILES: CCCCCCCOc1ccc(CCN2CCNCC2)cc1 [Compound 9, 1-(4-(Heptyloxy)phenethyl)piperazine]
cytotoxic effect (cell viability) [3]: only 40 µM concentration of compounds 3, 5 and 9 shows significant cytotoxic effect
cytotoxic effect (cell viability) [4]: more cytotoxic than RB005 and 5-FU

selectivity to SK1 (over SK2) [5]: more selectivity than RB005
SMILES: O=S(=O)(Oc1ccc(CCN2CCC[C@@H]2CO)cc1)c1ccccc1 [Compound 11, (R)-4-(2-(2-(Hydroxymethyl)pyrrolidin-1-yl)ethyl)phenyl benzenesulfonate]
apoptosis (annexin V assay) [6]: did not significantly induce apoptosis
SK1 inhibitory effect [5]: three-fold higher SK1 inhibitory effect than RB005
PP2A activity (activation) [7]: no effect on PP2A activation; also recorded: did not increase PP2A activity
phosphorylation of AKT and ERK [8]: did not decrease phosphorylation of AKT and ERK

selectivity to SK1 (over SK2) [5]: more selectivity than RB005
SMILES: O=S(=O)(Oc1ccc(CCN2CCC(O)CC2)cc1)c1ccccc1 [Compound 13, 4-(2-(4-Hydroxypiperidin-1-yl)ethyl)phenyl benzenesulfonate]
apoptosis (annexin V assay) [6]: did not significantly induce apoptosis
PP2A activity (activation) [7]: no effect on PP2A activation; also recorded: did not increase PP2A activity
phosphorylation of AKT and ERK [8]: did not decrease phosphorylation of AKT and ERK

SMILES: CCCCOc1ccc(CCC=C2SC(=O)N(CCN)C2=O)cc1 [Compound K145]
IC50 [1]: > 10 µM
IC50 [2]: 4.3 µM

SMILES: CC(=O)N1CCN(c2ccc(OCC3COC(Cn4ccnc4)(c4ccc(Cl)cc4Cl)O3)cc2)CC1 (stereo not shown) [Ketoconazole]
CYP1A2 activity (% of control activity) [9]: >100%
CYP2C9 activity (% of control activity) [10]: >100%
CYP2C19 activity (% of control activity) [11]: >100%

SMILES: Cc1cc(CS(=O)(=O)c2ccccc2)cc(OCc2ccc(CN3CCC[C@@H]3CO)cc2)c1 [PF-543]
liver microsomal stability, Rat (%) [12, 16]: 8.1%
liver microsomal stability (in words) ([12]; rat): unstable
liver microsomal stability, Mouse (%) [13, 16]: 6.5%
liver microsomal stability (in words) ([13]; mouse): unstable
liver microsomal stability, Human (%) ([14]; % remaining after 30 min, 0.5 mg/mL microsomes, NADPH): 13.5%
liver microsomal stability (in words) ([14]; human): unstable
CYP1A2 activity (% of control activity) [9]: 80.9%
CYP2D6 activity (% of control activity) [15]: 63.9%

SMILES: CCCCCCCCc1ccc(CCN2CCC(O)CC2)cc1 [RB005, reference compound]
cytotoxic effect, comparison ([3]; HCT116, 10, 20 and 40 µM, Supplementary Figure S1C): higher than compounds 11, 13, and PF-543
PP2A activity increase ([7]; HCT116, 24 h, 20 µM of compounds 10, 11 and 13, vs nontreated control cells): 1.59 fold

SMILES: CCCCCCCCOc1ccc(-c2noc([C@@H]3CCCN3C(=N)N)n2)cc1C(F)(F)F [SLM6041434]
Ki ([2]; known compound): 0.4 to 1.1 µM
